# Results from patent publication US4217450A, “Imidazoledicarboxylic acid substituted cephalosporin derivatives” (Ajinomoto Company, Incorporated, priority 1977, dated 1980).
# Structures can show the parent of a compound that is named as a salt.
# Test system: Pseudomonas aeruginosa AJ 2116
# Test: MIC using Pseudomonas aeruginosa AJ 2116 as the test organism
# Format: cell-based
# Details: AJ2116, read-out: MIC (Minimum Inhibitory concentration)
# Text: Comparative MIC's for compounds using Pseudomonas aeruginosa AJ 2116 as the test organism are as follows: "MIC" represents the Minimum INhibitory concentration in mcg./ml of the compound required to inhibit the growth of the test organism described.
row,SMILES,MIC [µg/mL]
1,"CC1(C)S[C@@H]2[C@H](NC(=O)[C@H](NC(=O)c3nc[nH]c3C(=O)O)c3ccccc3)C(=O)N2[C@H]1C(=O)O [I, D-α-(4-carboxyimidazole-5-carboxyamido)benzylpenicillin disodium salt monohydrate]",12.5
2,"CC1(C)S[C@@H]2[C@H](NC(=O)C(C(=O)O)c3ccccc3)C(=O)N2[C@H]1C(=O)O (some centres unmarked) [Carbenicillin, reference compound]",100
3,"Cn1nnnc1SCC1=C(C(=O)O)N2C(=O)[C@@H](NC(=O)[C@H](NC(=O)c3nc[nH]c3C(=O)O)c3ccccc3)[C@H]2SC1 [VIII, 7-β-[-(-)-α-(4-carboxyimidazole-5-carboxamido)phenylacetamido]-3-[[(1-methyl-1H-tetrazol-5-yl)thio]methyl]-3-cephem-4-carboxylic acid]",50
4,"O=C([O-])C1=C(C[n+]2ccc(CCS(=O)(=O)O)cc2)CS[C@@H]2[C@H](NC(=O)[C@H](NC(=O)c3nc[nH]c3C(=O)O)c3ccccc3)C(=O)N12 [IX, 7-β-[D-(-)-α-(4-carboxyimidazole-5-carboxamido)phenylacetamido]-3-(4-β-sulphoethylpyridinium)-methyl-3-cephem-4-carboxylic acid]",12.5
5,"NC(=O)c1cc[n+](CC2=C(C(=O)[O-])N3C(=O)[C@@H](NC(=O)[C@H](NC(=O)c4nc[nH]c4C(=O)O)c4ccccc4)[C@H]3SC2)cc1 [II, 7-β-[D-(-)-α-(4-carboxyimidazole-5-carbox-amido)-phenylacetoamido]-3-(4-carbamoylpyridinium)methyl-3-cephem-4-carboxylic acid.mixture of K and Na salt.trihydrate]",12.5
6,"CC1(C)S[C@@H]2[C@H](NC(=O)[C@H](N)c3ccccc3)C(=O)N2[C@H]1C(=O)O [ampicillin, reference compound]",> 500

# More lines, now with the values ahead:
row,MIC [µg/mL],SMILES
1,50,"Cc1nc(C(=O)N[C@@H](C(=O)N[C@@H]2C(=O)N3[C@@H]2SC(C)(C)[C@@H]3C(=O)O)c2ccccc2)c(C(=O)O)[nH]1 [V, D-α-(2-methyl-4-carboxyimidazole-5-carboxamido) benzylpenicillin]"
2,50,"CC1(C)S[C@@H]2[C@H](NC(=O)[C@H](NC(=O)c3nc(S)[nH]c3C(=O)O)c3ccccc3)C(=O)N2[C@H]1C(=O)O [IV, D-α-(2-mercapto-4-carboxyimidazole-5-carboxamido)benzylpenicillin]"
3,50,"CC1(C)S[C@@H]2[C@H](NC(=O)[C@H](NC(=O)c3nc(N)[nH]c3C(=O)O)c3ccccc3)C(=O)N2[C@H]1C(=O)O [VII, D-α-(2-amino-4-carboxyimidazole-5-carboxamido)benzylpenicillin]"
4,50,"CC1(C)S[C@@H]2[C@H](NC(=O)[C@H](NC(=O)c3nc(Cl)[nH]c3C(=O)O)c3ccccc3)C(=O)N2[C@H]1C(=O)O [VI, D-α-(2-chloro-4-carboxyimidazole-5-carboxamido)benzylpenicillin]"
5,25,"CC1(C)S[C@@H]2[C@H](NC(=O)[C@H](NC(=O)c3nc(O)[nH]c3C(=O)O)c3ccccc3)C(=O)N2[C@H]1C(=O)O [III, D-α-(2-hydroxy-4-carboxyimidazole-5-carboxamido)benzylpenicillin]"
